One assay concerns the target T1, pSTAT3 (pY705-STAT3) (Homo sapiens, UniProt P40763).
T1 construct: host or cells: cryopreserved PBMC
Nature of the assay: MSD-pSTAT-PBMC Assay (pSTAT3, IL-6 stimulated). The settings on record: PBMC, compound 3 hrs, then 10 ng/mL IL-6 for 10 min; MSD pY705-STAT3; read-out: pSTAT3. The class given is cell-based. In outline: (§1)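 Phospho-STAT levels captured on anti-STAT3 or anti-STAT6 plates and detected with anti-pY705 or anti-pY641 antibodies (MSD read-out). Cryopreserved human PBMCs received compound for 3 h before a 10 min pulse of IL-6 (10 ng/mL, STAT3) or IL-4 (1 ng/mL, STAT6). IC50 fitted after unstimulated-background subtraction and DMSO normalization.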

Another assay concerns the target T2, pSTAT6 (pY641-STAT6) (Homo sapiens, UniProt P42226).
T2 construct: host or cells: cryopreserved PBMC
T2 sequence (P42226 1-847): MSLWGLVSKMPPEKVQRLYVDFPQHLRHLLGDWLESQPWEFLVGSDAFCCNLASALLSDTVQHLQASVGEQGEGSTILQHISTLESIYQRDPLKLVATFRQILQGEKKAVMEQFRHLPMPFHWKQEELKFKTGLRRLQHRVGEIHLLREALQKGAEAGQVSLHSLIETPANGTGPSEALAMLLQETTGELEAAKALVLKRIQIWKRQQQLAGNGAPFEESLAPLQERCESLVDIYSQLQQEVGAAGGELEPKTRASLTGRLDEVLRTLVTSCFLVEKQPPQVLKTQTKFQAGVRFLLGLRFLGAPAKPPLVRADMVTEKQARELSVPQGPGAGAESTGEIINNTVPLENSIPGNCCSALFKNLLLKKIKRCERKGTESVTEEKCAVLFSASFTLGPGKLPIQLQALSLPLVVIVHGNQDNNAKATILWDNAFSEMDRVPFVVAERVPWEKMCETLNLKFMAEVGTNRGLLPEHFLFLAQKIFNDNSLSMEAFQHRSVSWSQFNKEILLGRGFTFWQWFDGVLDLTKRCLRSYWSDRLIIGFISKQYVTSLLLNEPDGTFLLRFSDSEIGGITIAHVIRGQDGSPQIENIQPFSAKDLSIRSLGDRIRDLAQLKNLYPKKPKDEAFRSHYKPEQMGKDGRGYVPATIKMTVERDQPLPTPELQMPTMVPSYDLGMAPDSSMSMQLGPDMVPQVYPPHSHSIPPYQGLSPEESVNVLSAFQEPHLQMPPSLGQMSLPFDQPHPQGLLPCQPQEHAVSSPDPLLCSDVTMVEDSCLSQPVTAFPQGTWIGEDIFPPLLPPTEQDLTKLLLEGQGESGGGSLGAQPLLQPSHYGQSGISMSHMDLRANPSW
Nature of the assay: MSD-pSTAT-PBMC Assay (pSTAT6, IL-4 stimulated). The class given is cell-based. The settings on record: compound 3 hrs, then 1 ng/mL IL-4 for 10 min. Summed up:
as §1

This is an account of results in patent US20250215030A1, “STAT MODULATORS AND USES THEREOF” (Recludix Pharma, Inc., priority 2022, published 2025).

T1 sequence (P40763 whole entry): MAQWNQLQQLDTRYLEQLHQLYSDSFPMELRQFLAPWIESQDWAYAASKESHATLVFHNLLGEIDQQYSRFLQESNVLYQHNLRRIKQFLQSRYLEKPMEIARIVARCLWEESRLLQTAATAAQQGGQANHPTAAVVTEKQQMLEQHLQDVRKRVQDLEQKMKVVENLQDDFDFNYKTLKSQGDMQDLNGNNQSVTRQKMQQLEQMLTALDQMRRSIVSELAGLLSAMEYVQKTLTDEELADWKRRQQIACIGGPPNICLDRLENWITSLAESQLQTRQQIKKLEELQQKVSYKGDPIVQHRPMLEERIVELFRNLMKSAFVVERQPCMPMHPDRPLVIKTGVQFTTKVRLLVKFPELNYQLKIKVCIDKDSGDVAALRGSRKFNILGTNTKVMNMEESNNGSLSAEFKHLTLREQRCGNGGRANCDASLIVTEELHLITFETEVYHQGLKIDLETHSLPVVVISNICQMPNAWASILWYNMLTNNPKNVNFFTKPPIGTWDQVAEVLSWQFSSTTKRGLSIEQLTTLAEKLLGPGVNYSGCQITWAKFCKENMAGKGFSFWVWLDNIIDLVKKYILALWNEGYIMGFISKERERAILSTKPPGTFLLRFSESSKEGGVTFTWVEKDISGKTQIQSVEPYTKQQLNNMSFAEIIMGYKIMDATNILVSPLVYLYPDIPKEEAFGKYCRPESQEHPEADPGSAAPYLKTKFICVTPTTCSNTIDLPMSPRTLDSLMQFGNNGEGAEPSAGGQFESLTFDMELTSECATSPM

In the case of `CC(C)(C)C(=O)OCOP(=O)(OCOC(=O)C(C)(C)C)C(F)(F)c1ccc2sc(C(=O)N[C@H]3C[C@H]4C[C@H]4C[C@H]4CC[C@@H](C(=O)N5CC(c6ccccn6)C5)N4C3=O)cc2c1` [Compound 209, (((difluoro(2-(((3S,6S,7aR, 8aS,9aR)-5-oxo-3-(3-(pyridin-2-yl)azetidine-1-carbonyl)decahydro-1H-cyclopropa[d]pyrrolo[1,2-a]azocin-6-yl)carbamoyl)benzo[b]thiophen-5-yl)methyl)phosphoryl)bis(oxy)) bis(methylene) bis(2,2-dimethyl-propanoate)], the IC50 was less than 100 nM at pSTAT3 (pY705-STAT3) and 100 to 1000 nM on pSTAT6 (pY641-STAT6).

For `CC(C)(C)C(=O)OCOP(=O)(OCOC(=O)C(C)(C)C)C(F)(F)c1ccc2sc(C(=O)N[C@H]3C[C@@H]4C[C@@H]4C[C@H]4CC[C@@H](C(=O)N5C[C@@H](C#N)[C@H](c6ccccc6)C5)N4C3=O)cc2c1` (relative stereo) [Compound 139, ((((2-(((3S,6S,7aR, 8aS,9aR)-3-((rel-trans)-3-cyano-4-phenyl-pyrrolidine-1-carbonyl)-5-oxodecahydro-1H-cyclopropa [d]pyrrolo[1,2-a]azocin-6-yl)carbamoyl)benzo[b]thiophen-5-yl)difluoro-methyl)phosphoryl)bis(oxy)) bis(methylene) bis(2,2-dimethylpro-panoate)], the IC50 at pSTAT3 (pY705-STAT3) and on pSTAT6 (pY641-STAT6) was less than 100 nM throughout.

On to `CC(C)(C)C(=O)SCCOP(=O)(OCCSC(=O)C(C)(C)C)C(F)(F)c1ccc2sc(C(=O)N[C@H]3C[C@H]4C[C@H]4C[C@H]4CC[C@@H](C(=O)N5CCN(C6CCOCC6)CC5)N4C3=O)cc2c1` [Compound 220, S,S′-((((difluoro(2-(((3S,6S,7aR, 8aS,9aR)-5-oxo-3-(4-(tetrahydro-2H-pyran-4-yl)piperazine-1-carbonyl)decahydro-1H-cyclopropa[d]pyrrolo[1,2-a]azocin-6-yl)carbamoyl)benzo[b]thiophen-5-yl)methyl)phosphoryl)bis(oxy))bis(ethane-2,1-diyl)) bis(2,2-dimethyl-propanethioate)], for which the IC50 at pSTAT3 (pY705-STAT3) was less than 100 nM; at pSTAT6 (pY641-STAT6) it was more than 3000 nM.

`CC(C)(C)C(=O)OCOP(=O)(OCOC(=O)C(C)(C)C)C(F)(F)c1ccc2sc(C(=O)N[C@H]3C[C@@H]4C[C@@H]4C[C@H]4CC[C@@H](C(=O)N5CC(n6ccnc6)C5)N4C3=O)cc2c1` [Compound 207]: the IC50 on pSTAT3 (pY705-STAT3) is less than 100 nM; at pSTAT6 (pY641-STAT6), more than 3000 nM.

As to `CC(C)(C)C(=O)OCOP(=O)(OCOC(=O)C(C)(C)C)[C@@H](F)c1ccc2sc(C(=O)N[C@H]3C[C@@H]4C[C@@H]4C[C@H]4CC[C@@H](C(=O)N5CC(C(=O)N6CCOCC6)C5)N4C3=O)cc2c1` (single isomer, unassigned) [Compound 182, ((((S) or (R)-fluoro(2-(((3S,6S,7aS, 8aR,9aR)-3-(3-(morpholine-4-carbonyl)azetidine-1-carbonyl)-5-oxodecahydro-1H-cyclopropa[d]pyrrolo[1,2-a]azocin-6-yl)carbamoyl)benzo[b]thiophen-5-yl)methyl)phosphoryl)bis(oxy)) bis(methylene) bis(2,2-dimethyl-propanoate)], the IC50 at pSTAT3 (pY705-STAT3) is less than 100 nM; against pSTAT6 (pY641-STAT6) it was more than 3000 nM.

`CC(C)(C)C(=O)SCCOP(=O)(Cc1ccc2sc(C(=O)N[C@H]3C[C@@H]4C[C@@H]4C[C@H]4CC[C@@H](C(=O)N5CC(C(=O)N6CCOCC6)C5)N4C3=O)cc2c1)OCCSC(=O)C(C)(C)C` [Compound 144, S,S′-(((((2-(((3S,6S,7aS, 8aR,9aR)-3-(3-(morpholine-4-carbonyl)azetidine-1-carbonyl)-5-oxodecahydro-1H-cyclopropa[d]pyrrolo[1,2-a]azocin-6-yl)carbamoyl)benzo[b]thiophen-5-yl)methyl)phosphoryl)bis(oxy))bis(ethane-2,1-diyl)) bis(2,2-dimethyl-propanethioate)]: the IC50 at pSTAT3 (pY705-STAT3) is 100 to 1000 nM; on pSTAT6 (pY641-STAT6), more than 3000 nM.

For the compound `CC(C)OC(=O)[C@@H](C)CNP(=O)(Oc1ccccc1)C(F)(F)c1ccc2sc(C(=O)N[C@H]3C[C@@H]4C[C@@H]4C[C@H]4CC[C@@H](C(=O)N5CC(C(=O)N6CCOCC6)C5)N4C3=O)cc2c1` (stereo partly drawn) [Compound 184, isopropyl (2S)-3-(((difluoro(2-(((3S,6S,7aS, 8aR,9aR)-3-(3-(morpholine-4-carbonyl)azetidine-1-carbonyl)-5-oxodecahydro-1H-cyclopropa [d]pyrrolo[1,2-a]azocin-6-yl)carbamoyl)benzo[b]thiophen-5-yl)methyl) (phenoxy)phosphoryl)amino)-2-methyl-propanoate], the IC50 at pSTAT3 (pY705-STAT3) and at pSTAT6 (pY641-STAT6) was more than 3000 nM in each case.

As for `CC(C)(C)C(=O)SCCOP(=O)(OCCSC(=O)C(C)(C)C)C(F)(F)c1ccc2sc(C(=O)N[C@H]3C[C@H]4C[C@H]4C[C@H]4CC[C@@H](C(=O)N5CC(c6ccccn6)C5)N4C3=O)cc2c1` [Compound 218, S,S′-((((difluoro(2-(((3S,6S,7aR, 8aS,9aR)-5-oxo-3-(3-(pyridin-2-yl)azetidine-1-carbonyl)decahydro-1H-cyclopropa[d]pyrrolo[1,2-a]azocin-6-yl)carbamoyl)benzo [b]thiophen-5-yl)methyl)phosphoryl)bis(oxy))bis(ethane-2,1-diyl)) bis(2,2-dimethyl-propanethioate)], the IC50 at pSTAT3 (pY705-STAT3) was less than 100 nM; at pSTAT6 (pY641-STAT6), more than 3000 nM.

Consider `CC(C)OC(=O)CNP(=O)(Oc1ccccc1)C(F)(F)c1ccc2sc(C(=O)N[C@H]3C[C@@H]4C[C@@H]4C[C@H]4CC[C@@H](C(=O)N5CC(C(=O)N6CCOCC6)C5)N4C3=O)cc2c1` (stereo partly drawn) [Example 2, isopropyl ((difluoro(2-(((3S,6S,7aS,8aR,9aR)-3-(3-(morpholine-4-carbonyl)azetidine-1-carbonyl)-5-oxodecahydro-1H-cyclopropa[d]pyrrolo[1,2-a]azocin-6-yl)carbamoyl)benzo[b]thiophen-5-yl)methyl)(phenoxy)phosphoryl)glycinate], for which the IC50 at pSTAT3 (pY705-STAT3) and against pSTAT6 (pY641-STAT6) was more than 3000 nM throughout.

In the case of `CCCC(=O)SCCOP(=O)(OCCSC(=O)CCC)C(F)(F)c1ccc2sc(C(=O)N[C@H]3C[C@@H]4C[C@@H]4C[C@H]4CC[C@@H](C(=O)N5CC(n6ccnc6)C5)N4C3=O)cc2c1` [Compound 188, S,S′-(((((2-(((3S,6S,7aS, 8aR,9aR)-3-(3-(1H-imidazol-1-yl)azetidine-1-carbonyl)-5-oxodecahydro-1H-cyclopropa[d]pyrrolo[1,2-a]azocin-6-yl)carbamoyl)benzo[b]thiophen-5-yl)difluoromethyl)phosphoryl)bis(oxy))bis(ethane-2,1-diyl)) dibutanethioate], the IC50 was less than 100 nM on pSTAT3 (pY705-STAT3) and 100 to 1000 nM against pSTAT6 (pY641-STAT6).

For the compound `CC(C)(C)C(=O)OCOP(=O)(OCOC(=O)C(C)(C)C)C(F)(F)c1ccc2sc(C(=O)N[C@H]3C[C@H]4C[C@H]4C[C@H]4CC[C@@H](C(=O)N5CC(n6ccnc6)C5)N4C3=O)cc2c1` [Compound 214, ((((2-(((3S,6S,7aR, 8aS,9aR)-3-(3-(1H-imidazol-1-yl)azetidine-1-carbonyl)-5-oxodecahydro-1H-cyclopropa[d]pyrrolo[1,2-a]azocin-6-yl)carbamoyl)benzo[b]thiophen-5-yl)difluoromethyl)phosphoryl)bis(oxy)) bis(methylene) bis(2,2-dimethyl-propanoate)], the values for the IC50 on pSTAT3 (pY705-STAT3) and at pSTAT6 (pY641-STAT6) were less than 100 nM and more than 3000 nM, respectively.

Turning to `CCCC(=O)SCCOP(=O)(OCCSC(=O)CCC)C(F)(F)c1ccc2sc(C(=O)N[C@H]3C[C@@H]4C[C@@H]4C[C@H]4CC[C@@H](C(=O)N5CC(C(=O)N6CCOCC6)C5)N4C3=O)cc2c1` [Compound 178, S,S′-((((difluoro(2-(((3S,6S,7aS, 8aR,9aR)-3-(3-(morpholine-4-carbonyl)azetidine-1-carbonyl)-5-oxodecahydro-1H-cyclopropa[d]pyrrolo[1,2-a]azocin-6-yl)carbamoyl)benzo[b]thiophen-5-yl)methyl)phosphoryl)bis(oxy))bis(ethane-2,1-diyl)) dibutane-thioate], the results for the IC50 at pSTAT3 (pY705-STAT3) and at pSTAT6 (pY641-STAT6) were less than 100 nM and 100 to 1000 nM, respectively.
